Measurements as given in patent US11541065B2, “Compositions and methods for treating brain injury” (UNM RAINFOREST INNOVATIONS, priority 2018, dated 2023).

Key:
[1] = tested on: hyperhomocysteinemic rats subjected to MCAO; assay: Adhesive removal test after MCAO; assay type: in vivo, male Wistar rats; details: HHcy rats, 9 days after MCAO, NVP-AAM077 1.2 mg/kg
Description: All rats were subjected to a battery of behavioral tests on day 7 (CatWalk), day 8 (cylinder and rotarod tests) and day 9 (adhesive test) after MCAO to evaluate normal gait, motor coordination and sensory motor functions. Habituation and training (3 days) was performed for one week before MCAO. The first two trainings days were before osmotic pump implantation and the third training day was after pump implantation. An experienced observer blinded to the experimental conditions evaluated all behavioral parameters.
Adhesive removal test: Sensorimotor deficits following stroke was assessed by performing the adhesive removal test in control, hyperhomocysteinemic and NVP-AAM077 treated hyperhomocysteinemic rats. A small adhesive patch (7 mm×3 mm) was applied to the contralateral forepaw of each rat with equal pressure and the time taken to notice the presence of the patch (time to contact) and to remove it (time to remove) was recorded (Bouet et al., 2009, Nat Protoc 4:1560-1564). The time taken to notice the patch was recorded from the moment of placing the patch until the paw was shaken or touched by mouth. The time taken to remove the patch was recorded from the moment the mouth touched the paw to the time the patch was removed. The trial ended after the adhesive patch was removed or a maximum latency of three minutes. […]

[2] = tested on: ERK MAPK; assay: ERK MAPK phosphorylation in WT and GluN2A-KO mouse neuron cultures (immunoblot); assay type: cell-based, mice; details: L-homocysteine 50 μM
Source text: Primary cortical neuronal cultures were established from embryos obtained from pregnant Sprague Dawley female rats (16-17 day gestation) as previously described (Podder and Paul, 2009, J Neurochem 110:1095-1106; Poddar and Paul, 2013, J Neurochem 124: 558-570). Primary cortical neuronal cultures were also developed from pregnant wildtype or GluN2A-knockout mice (15-16 day gestation) using similar protocols. The cells were maintained in culture for 12-14 days prior to treatment with homocysteine. L-homocysteine (200 mM stock) was prepared by alkali hydrolysis of L-homocysteine thiolactone hydrochloride followed by neutralization with 2N HCL and maintained in 0.02 mM N-Tris(hydroxymethyl)methyl-2-aminoethanesulfonicd acid (TES) buffer pH 7.4 (Poddar et al., 2001, Circulation 103:2717-2723). For receptor stimulation neurons were treated with freshly prepared 50 μM of L-homocysteine in Hank's balanced salt solution (Podder and Paul, 2009, J Neurochem 110:1095-1106; Poddar and Paul, 2013, J Neurochem 124: 558-570) containing 50 μM of glycine (Lipton et al., 1997, Proc Natl Acad Sci USA 94:5923-5928). In a subset of culture plates, pharmacological inhibitors (NVP-AAM007) were added […] prior to homocysteine addition and maintained during homocysteine treatment. Cells were processed for immunoblotting or Hoechst DNA staining.
Equal protein from total cell lysates obtained from rat and mice neuronal cultures were resolved in 7.5% SDS-PAGE, and subjected to immunoblotting procedure as described earlier (Podder and Paul, 2009, J Neurochem 110:1095-1106). Blots were analyzed with antibodies as described in each experiment. All primary antibodies (anti-pERK, anti-ERK) and secondary-horse radish peroxidase conjugated antibody concentrations were used according to recommendations provided by the manufacturer. Signals from immune complexes in the blots were developed using West Pico supersignal chemiluminescence reagents and then captured on X-ray films. Densitometric analysis of the images was performed using the Image J software.
Embryos obtained from pregnant Sprague Dawley rats (16-17-day gestation) or wild type (WT) and GluN2A KO mice (15-16-day gestation) were used to establish primary cortical neuronal cultures as previously described (Poddar and Paul, 2009, J Neurochem 110:1095-1106; Poddar and Paul, 2013, J Neurochem 124:558-570; Poddar et al., 2017, J Neurochem 142:560-573). Neurons were grown on either (a) 35-mm culture dishes (MatTek Corp., Ashland, Mass.) coated overnight with poly-D-lysine (50 μg/ml) and laminin (10 μg/ml) for Ca^2+ imaging studies, (b) poly-D-lysine-coated 60 mm dishes (Corning BIOCOAT, Corning Inc., Corning, N.Y.) for biochemical studies, or (c) poly-D-lysine-coated 4-well culture slides (Corning BIOCOAT, Corning Inc., Corning, N.Y.) for cell death assay. Neurons were maintained in culture for 12-13 days before experiment. The cells were treated with freshly prepared L-homocysteine (50 μM) in Hank's balanced salt solution containing 50 μM of glycine (Lipton et al., 1997, Proceedings of the National Academy of Sciences of the United States of America 94:5923-5928; Poddar and Paul, 2009, J Neurochem 110:1095-1106; Poddar and Paul, 2013, J Neurochem 124:558-570; Poddar et al., 2017, J Neurochem 142:560-573) for the specified time periods. In a parallel series of experiments, cells were treated with glutamate (50 μM) for the specified time periods. Cells were then processed for live cell imaging, immunoblotting or cell death assay. […]

[3] = tested on: IκB; assay: IκB degradation in rat neuronal cultures (immunoblot); assay type: cell-based; details: rat neurons, homocysteine 50 μM, four hours, alone
Description: Rat and mice neuronal cultures were washed with PBS (pH 7.4), containing sodium pyrophosphate and sodium vanadate as phosphatase inhibitors, and harvested in SDS sample buffer (Laemmli, 1970, Nature 227:680-685). Equal protein from total cell lysates, estimated using BCA kit, was resolved by SDS-PAGE (7.5%) followed by western blotting on PVDF membranes. Immunoblot analysis was performed by first blocking with 5% non-fat dry milk for 1 h at room temperature followed by incubation with either COX2 immunoblot analysis (Poddar and Paul, 2009, J Neurochem 110:1095-1106) as described in each experiment. All primary antibodies and horseradish peroxidase conjugated secondary antibodies were used according to manufacturer's recommendations. Signals from immune complexes in the blots were developed using West Pico supersignal chemiluminescence reagents and then captured on X-ray films. Densitometric analysis of the images was performed using the NIH Image J software.

Row | Compound | time to contact adhesive tape, contralateral forepaw ([1]; untreated HHcy 76.82±5.45 s) | time to remove adhesive tape, contralateral forepaw ([1]; untreated HHcy 127.86±7.29 s) | ERK MAPK phosphorylation ([2]; neurons from GluN2A KO mice, 30 or 60 minutes) | ERK MAPK phosphorylation ([2]; neurons from GluN2A-KO mice, four hours) | ERK MAPK phosphorylation ([2]; neurons from WT mice, 30 or 60 minutes) | ERK MAPK phosphorylation ([2]; neurons from WT mice, four hours) | cellular level of IκB [3]
1 | C[C@H](NC(c1cccc2[nH]c(=O)c(=O)[nH]c12)P(=O)(O)O)c1ccc(Br)cc1 (stereo partly drawn) [NVP-AAM077, ({[(1S)-1-(4-bromophenyl)ethyl]amino}-(2,3-dioxo-1,4-dihydroquinoxalin-5-yl)methyl)phosphonic acid] | 31.18 ± 5.68 s | 44.24 ± 7.59 s | – | – | – | – | –
2 | N[C@@H](CCS)C(=O)O [L-homocysteine] | – | – | fails to induce ERK MAPK phosphorylation | remains unchanged | sustained increase in ERK MAPK phosphorylation | significant increase in ERK MAPK phosphorylation | significant decrease in the cellular level of IκB
